{
  "source": "patent US9708314B2",
  "about": "“Heterocyclic amide compound” (NISSAN CHEMICAL INDUSTRIES, LTD., priority 2013, dated 2017)",
  "data": [
    {"test_system": "transplanted Oryza sativa", "assay": "Test Example 1: effect on crop, application before weed generation in submerged conditions", "assay_type": "in vivo", "settings": "Application herbicide amount 320 g/ha; Seventeenth Table", "excerpt": "[Test Example 1] Herbicidal Activity Test by Application Before Weed Generation in Submerged Conditions After alluvial soil was placed into 1/10000 are of Wagner pot, water was poured and mixed to form a submerged condition having a water depth of 4 cm. Seeds of Echinochloa oryzacola Vasing., Scirpus juncoides, and Monochoria vaginalis were sowed in a mixed manner in the above pot and thereafter 2.5 leaf stage Oryza sativa seedling was transplanted. On the day of sowing seeds, the emulsion agent containing the compound of the present invention prepared in accordance with Formulation Example 2 was diluted with water so as to be a predetermined herbicide amount and the diluted compound was applied to the surface of the water. The pot was placed in a greenhouse of 25° C. to 30° C. to grow plant. Three weeks after the herbicide application, effects on each plant were investigated in accordance with the following criteria. Criteria 5 Herbicidal ratio of 90% or more (almost completely withered) 4 Herbicidal ratio of 70% or more and less than 90% 3 Herbicidal ratio of 40% or more and less than 70% 2 Herbicidal ratio of 20% or more and less than 40% 1 Herbicidal ratio of 5% or more and less than 20% 0 Herbicidal ratio of 5% or less (almost no effect) A: Echinochloa oryzicola Vasing., B: Scirpus juncoides, C: Monochoria vaginalis, D: Leptochloa chinensis, E: Cyperus difformis, F: Digitaria ciliaris, G: Setaria viridis, H: Echinochloa crus-galli var. crus-galli, I: Avena fatua, J: Alopecurus myosuroides, K: Lolium multiflorum Lam., L: Apera spica-venti., M: Abutilon theophrasti, N: Amaranthus retroflexus, O: Chenopodium album, P: Stellaria media, Q: Galium spurium, R: Veronica persica, a: transplanted Oryza sativa, b: directly sowed Oryza sativa, c: Zea mays, d: Glycine max, e: Triticum aestivum, f: Beta vulgaris ssp. vulgaris, and g: Brassica campestris L. The application herbicide amount (g/ha) means an amount that a concentration is adjusted so that, when an application amount is converted into per hectare (1 ha), the herbicide is applied by the number of grams (g) of the described value.", "values": [
      {"compound": "Cc1nnc(NC(=O)c2ccc(C(F)(F)F)n3c(-c4ccc(Cl)nc4)nnc23)o1", "note": "[1-054]", "a: transplanted Oryza sativa (effect on crop grade)": "2 (Herbicidal ratio of 20% or more and less than 40%)"},
      {"compound": "Cc1nnc(NC(=O)c2ccc(C(F)(F)F)n3c(-c4cccc(Cl)n4)nnc23)o1", "note": "[1-055]", "a: transplanted Oryza sativa (effect on crop grade)": "1 (Herbicidal ratio of 5% or more and less than 20%)"},
      {"compound": "Cc1cc(-c2nnc3c(C(=O)Nc4nnc(C)o4)ccc(C(F)(F)F)n23)n(C)n1", "note": "[1-056]", "a: transplanted Oryza sativa (effect on crop grade)": "3 (Herbicidal ratio of 40% or more and less than 70%)"},
      {"compound": "Cc1nnc(NC(=O)c2ccc(C(F)(F)F)n3c(-c4cccs4)nnc23)o1", "note": "[1-057]", "a: transplanted Oryza sativa (effect on crop grade)": "2 (Herbicidal ratio of 20% or more and less than 40%)"},
      {"compound": "Cc1nnc(NC(=O)c2ccc(C(F)(F)F)n3c(-c4cncs4)nnc23)o1", "note": "[1-058]", "a: transplanted Oryza sativa (effect on crop grade)": "4 (Herbicidal ratio of 70% or more and less than 90%)"},
      {"compound": "C#CCSc1nnc2c(C(=O)Nc3nnc(C)o3)ccc(C(F)(F)F)n12", "note": "[1-065]", "a: transplanted Oryza sativa (effect on crop grade)": "0 (Herbicidal ratio of 5% or less (almost no effect))"},
      {"compound": "Cc1nnc(NC(=O)c2ccc(C(F)(F)C(F)(F)F)n3c(C(C)C)nnc23)o1", "note": "[1-066]", "a: transplanted Oryza sativa (effect on crop grade)": "2 (Herbicidal ratio of 20% or more and less than 40%)"},
      {"compound": "Cc1nnc(NC(=O)c2ccc(C(F)(F)F)n3c(CO)nnc23)o1", "note": "[1-067]", "a: transplanted Oryza sativa (effect on crop grade)": "0 (Herbicidal ratio of 5% or less (almost no effect))"},
      {"compound": "Cc1nnc(NC(=O)c2ccc(C(F)(F)F)n3c(C=O)nnc23)o1", "note": "[1-068]", "a: transplanted Oryza sativa (effect on crop grade)": "0 (Herbicidal ratio of 5% or less (almost no effect))"},
      {"compound": "COc1ccc(Cc2nnc3c(C(=O)Nc4nnc(C)o4)ccc(C(F)(F)F)n23)cc1", "note": "[1-069]", "a: transplanted Oryza sativa (effect on crop grade)": "0 (Herbicidal ratio of 5% or less (almost no effect))"},
      {"compound": "COc1cc(OC)cc(-c2nnc3c(C(=O)Nc4nnc(C)o4)ccc(C(F)(F)F)n23)c1", "note": "[1-070]", "a: transplanted Oryza sativa (effect on crop grade)": "3 (Herbicidal ratio of 40% or more and less than 70%)"},
      {"compound": "Cc1nnc(NC(=O)c2ccc(C(F)(F)F)n3c(-c4cc(Cl)cc(Cl)c4)nnc23)o1", "note": "[1-071]", "a: transplanted Oryza sativa (effect on crop grade)": "0 (Herbicidal ratio of 5% or less (almost no effect))"},
      {"compound": "COCC[S+]([O-])c1nnc2c(C(=O)Nc3nnc(C)o3)ccc(C(F)(F)F)n12", "note": "(centres unmarked) [1-073]", "a: transplanted Oryza sativa (effect on crop grade)": "3 (Herbicidal ratio of 40% or more and less than 70%)"},
      {"compound": "C=CC[S+]([O-])c1nnc2c(C(=O)Nc3nnc(C)o3)ccc(C(F)(F)F)n12", "note": "(centres unmarked) [1-074]", "a: transplanted Oryza sativa (effect on crop grade)": "0 (Herbicidal ratio of 5% or less (almost no effect))"},
      {"compound": "Cc1nnc(NC(=O)c2cc(C)c(C(F)(F)F)n3c(C(C)C)nnc23)o1", "note": "[1-075]", "a: transplanted Oryza sativa (effect on crop grade)": "0 (Herbicidal ratio of 5% or less (almost no effect))"},
      {"compound": "Cc1nnc(NC(=O)c2ccc(C(F)(F)F)n3c(N(C)C)nnc23)o1", "note": "[1-076]", "a: transplanted Oryza sativa (effect on crop grade)": "3 (Herbicidal ratio of 40% or more and less than 70%)"},
      {"compound": "C#CC[S+]([O-])c1nnc2c(C(=O)Nc3nnc(C)o3)ccc(C(F)(F)F)n12", "note": "(centres unmarked) [1-077]", "a: transplanted Oryza sativa (effect on crop grade)": "0 (Herbicidal ratio of 5% or less (almost no effect))"},
      {"compound": "CSC(C)c1nnc2c(C(=O)Nc3nnc(C)o3)ccc(C(F)(F)F)n12", "note": "(centres unmarked) [1-078]", "a: transplanted Oryza sativa (effect on crop grade)": "4 (Herbicidal ratio of 70% or more and less than 90%)"},
      {"compound": "Cc1nnc(NC(=O)c2ccc(C(F)(F)F)n3c(C(C)[S+](C)[O-])nnc23)o1", "note": "(centres unmarked) [1-079]", "a: transplanted Oryza sativa (effect on crop grade)": "4 (Herbicidal ratio of 70% or more and less than 90%)"},
      {"compound": "Cc1nnc(NC(=O)c2ccc(C(F)(F)F)n3c(C(C)S(C)(=O)=O)nnc23)o1", "note": "(centres unmarked) [1-080]", "a: transplanted Oryza sativa (effect on crop grade)": "4 (Herbicidal ratio of 70% or more and less than 90%)"},
      {"compound": "Cc1nnc(NC(=O)c2ccc(C(F)(F)F)n3c(Nc4ccccc4)nnc23)o1", "note": "[1-082]", "a: transplanted Oryza sativa (effect on crop grade)": "0 (Herbicidal ratio of 5% or less (almost no effect))"},
      {"compound": "CSCCc1nnc2c(C(=O)Nc3nnc(C)o3)ccc(C(F)(F)F)n12", "note": "[1-083]", "a: transplanted Oryza sativa (effect on crop grade)": "0 (Herbicidal ratio of 5% or less (almost no effect))"},
      {"compound": "Cc1nnc(NC(=O)c2ccc(C(F)(F)F)n3c(CC[S+](C)[O-])nnc23)o1", "note": "(centres unmarked) [1-084]", "a: transplanted Oryza sativa (effect on crop grade)": "0 (Herbicidal ratio of 5% or less (almost no effect))"}
    ]}
  ]
}
